Source: US20150374702A1 (CATHOLIC UNIVERSITY INDUSTRY ACADEMIC COOPERATION FOUNDATION, priority 2013, published 2015)

What was measured:
Capan-1 xenograft tumor [1] = assay: Suppression of tumor growth by combinatory treatment of pentoxifylline and gemcitabine; type: in vivo, BALB/c nu/nu mice; conditions: pentoxifylline alone 100 mg/kg/d i.p., 28 days
Source text: (§1) Female BALB/c nu/nu mice (5 to 6 weeks old) were purchased from Orient Bio Inc. (Seongnam City, Gyeonggi-do, Korea), and were raised in a germ-free animal breeding facility at the Catholic University of Korea, Catholic Medical Center (Seoul, Korea). The animals were raised in a standard state, and supplied with food and water ad libitum. The animals were taken care of in accordance with the guidelines of the Institutional Animal Care and Use Committee (IACUC) of School of Medicine of the Catholic University of Korea (Approval Number; CUMC-2010-0141-01). For induction of tumor, Capan-1 cells were harvested after the trypsin treatment, 5×10^6 living cells were subcutaneously injected into the right flanks of the mice. After tumor was induced, the mice were sacrificed, tumor samples were obtained, and experiments were performed according to each Example to be described below.
The tumor size (mm^3) was calculated by using the equation: V=(a×b^2)/2 (a is the largest diameter of tumor, and b is the smallest diameter of tumor). The relative tumor size was normalized with respect to the volume when a drug treatment of Capan-1 xenograft tumor was initiated. At least three mice per group were used, and the results were presented as an average standard error (SE). The statistical significance was determined by using a 2-sample t-test inferred from the Microsoft Excel 2007. […]

CD31 = assay: Blood vessel density by CD31 immunostaining in tumor sections; type: in vivo, BALB/c nu/nu mice; conditions: with versus without pentoxifylline
Source text: as §1

collagen type I = assay: Collagen type I content in tumor sections (immunofluorescence); type: in vivo, mice
Source text: as §1

[2] = tested on: mouse COLIA1 (collagen type I, alpha 1); assay: Collagen type I mRNA expression in tumor (quantitative real-time RT-PCR); type: in vivo; conditions: pentoxifylline pretreatment for two weeks; P<0.02
Source text: as §1, with “After tumor was induced, the mice were sacrificed, tumor samples were obtained, and experiments were performed according to each Example to be described below.” left out
(§2) In order to confirm the mRNA expression level of collagen type I, RT-PCR was performed. For the quantitative real-time RT-PCR analysis, total RNAs were isolated from tumor homogenates using the Trizol method and quantified by Nanodrop spectrophotometer (ND-1000). After 1 μg of total RNAs was reverse transcribed from the tissue with AccuPower CycleScript RT PreMix (Bioneer), a quantitative real-time polymerase chain reaction was performed using the LightCycler 480 Real-Time PCR System II (Roche) with SYBR Green Master mix (Roche) according to the manufacturer's recommendation. […]

α-SMA = assay: Immunohistochemical staining of α-SMA in tumor sections; type: in vivo, mice; conditions: pentoxifylline for two weeks; p<0.001
Source text: as §1, with “below. […] Immunohistochemical staining for α-SMA, TGF-β1, and CTGF was performed using Dako Envision Detection System ([…], DAKO). Paraffin-embedded, formalin fixed samples were cut into sections having a thickness of 3 μm, deparaffinized and rehydrated. For antigen retrieval, a pressure cooker of a microwave method was used as a target retrieval solution ([…], DAKO) for 5 minutes (pH 9.0), and cooled at room temperature for 20 minutes. […]” for “below.”

CTGF = assay: Immunohistochemical staining of CTGF in tumor sections; type: in vivo, mice; conditions: pentoxifylline for two weeks; p<0.05
Source text: as §1, with “below. […] Immunohistochemical staining for α-SMA, TGF-β1, and CTGF was performed using Dako Envision Detection System ([…], DAKO). Paraffin-embedded, formalin fixed samples were cut into sections having a thickness of 3 μm, deparaffinized and rehydrated. For antigen retrieval, a pressure cooker of a microwave method was used as a target retrieval solution ([…], DAKO) for 5 minutes (pH 9.0), and cooled at room temperature for 20 minutes. […]” for “below.”

TGF-β1 [3] = assay: Total and active TGF-β1 in tumor homogenate (ELISA); type: in vivo, mice; conditions: ELISA of tumor homogenate
Source text: as §1
Frozen tumors were cut into small pieces, and homogenized using Precellys 24 homogenizer (Bertin Technologies) in Tissue Extraction Reagent I (Invitrogen) containing protease inhibitor cocktail (Complete Mini, Roche). […] Total protein concentrations were determined by BCA protein assay kit (Pierce). Total and active TGF-β1 concentrations were determined using TGF-β1 ELISA kit (eBioscience) according to the manufacturer's protocol.

TGF-β1 [4] = assay: Immunohistochemical staining of TGF-β1 in tumor sections; type: in vivo, mice
Source text: as §1, with “below. […] Immunohistochemical staining for α-SMA, TGF-β1, and CTGF was performed using Dako Envision Detection System ([…], DAKO). Paraffin-embedded, formalin fixed samples were cut into sections having a thickness of 3 μm, deparaffinized and rehydrated. For antigen retrieval, a pressure cooker of a microwave method was used as a target retrieval solution ([…], DAKO) for 5 minutes (pH 9.0), and cooled at room temperature for 20 minutes. […]” for “below.”

mouse TGF-β1 = assay: TGF-β1 mRNA expression in tumor (quantitative real-time RT-PCR); type: in vivo; conditions: pentoxifylline versus control; direction not stated at b84
Source text: as §1, with “After tumor was induced, the mice were sacrificed, tumor samples were obtained, and experiments were performed according to each Example to be described below.” left out
as §2, with “For” for “In order to confirm the mRNA expression level of collagen type I, RT-PCR was performed. For”
All expression data were normalized using the GAPDH expression. The relative gene expression was quantified using the ΔΔCt method (2-ΔΔCt).

Capan-1 xenograft tumor [5] = assay: Suppression of tumor growth by doxorubicin or liposomal doxorubicin after pentoxifylline pretreatment; type: in vivo, BALB/c nu/nu mice; conditions: doxorubicin 8 mg/kg i.v., with or without pentoxifylline pretreatment 100 mg/kg/d for two weeks; normalized to volume at treatment start; P<0.05
Source text: as §1

SMILES	anti-tumor effects compared to the control group of saline treatment (Capan-1 xenograft tumor [1])	blood vessel density exhibited by CD31 immunostaining (CD31)	collagen content at high dose (100 mg/kg) versus low dose (50 mg/kg) (collagen type I; i.p. for two weeks, P<0.05)	collagen type I contents in central and marginal regions of the tumor sections (collagen type I; pentoxifylline i.p. for two weeks versus saline)	reduction of mRNA expression of collagen I compared to the control group [2] [%]	reduction of immunostaining of α-SMA in the tumor sections (α-SMA) [%]	reduction of immunostaining of CTGF in the tumor sections (CTGF) [%]	effect on active TGF-β1 level in the tumor tissue (TGF-β1 [3])	effect on total TGF-β1 level in the tumor tissue (TGF-β1 [3])	effect on TGF-β1 immunohistochemical staining in the tumor tissue (TGF-β1 [4])	TGF-β1 mRNA expression (mouse TGF-β1)	relative tumor size at day 23 (Capan-1 xenograft tumor [5])
CC(=O)CCCCn1c(=O)c2c(ncn2C)n(C)c1=O [pentoxifylline, 1-(5-oxohexyl)-3,7-dimethylxanthine]	anti-tumor effects did not appear	no difference between groups	slightly lower	reduced	72	66	25	no effects	no effects	no effects	big difference	
COc1cccc2c1C(=O)c1c(O)c3c(c(O)c1C2=O)C[C@@](O)(C(=O)CO)C[C@@H]3O[C@H]1C[C@H](N)[C@H](O)[C@H](C)O1 [doxorubicin]												1.52
